Test systems include A498 renal; A549 NSCLC; HT29 colon; MDA-MB-435; NCI-H522 lung; PC-3 prostate; RPMI-8226 leukemia; T-47D breast; COLO 205 colon; HOP-92 NSCLC.
Common to all, as to assay: inhibition of tumour cell growth, NCI panel, 48 h

Where “and” joins values, the source holds several entries; their conditions need not be identical. Identical values can stand only once.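 Interpolation was linear, between the two tested concentrations surrounding the appropriate level; five concentrations were tested over 48 hours in 96-well plates. At the GI50, growth is halved. TGI is the concentration that stops growth completely.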

Turning to `CCC/C(=N\NC(=S)N1CCN(c2ccccn2)CC1)c1ccccn1`, the figures for the GI50 in the test on A498 renal and in the test on A549 NSCLC were 0.194 µM and 0.032 µM, respectively. In addition, the TGI with A498 renal is 3.93 µM and 1.36 µM; in the test on A549 NSCLC, > 3.16 µM and 1.93 µM; in the test on HT29 colon it was above 5.39 µM; in the test with MDA-MB-435, 1.96 µM; in the test on NCI-H522 lung, 0.307 µM; in the test on PC-3 prostate, 1.26 µM. The TGI is 0.024 µM and 0.0128 µM in the test with RPMI-8226 leukemia; 0.389 µM in the test with T-47D breast.

`O=C1c2ccccc2-c2c1c1ccccc1c(=O)n2CCCNCCCn1c2c(c3ccccc3c1=O)C(=O)c1ccccc1-2`: the GI50 in the test on A498 renal was 8.97 µM; with A549 NSCLC, 2.01 µM; with COLO 205 colon, 10.6 µM; in the test with HT29 colon, 0.997 µM; with MDA-MB-435, 9.34 µM; in the test with NCI-H522 lung, 13.7 µM. Besides, the GI50 in the test with PC-3 prostate is 2.08 µM; in the test with RPMI-8226 leukemia it was 2.58 µM; in the test with T-47D breast, 10.7 µM. Also, the TGI in the test on A498 renal was 17.4 µM; with A549 NSCLC, above 50 µM; in the test on COLO 205 colon it was above 31.1 µM; with HT29 colon, above 50 µM; with MDA-MB-435, 22.9 µM; in the test with NCI-H522 lung it was above 50 µM. Also, the TGI with PC-3 prostate turned out to be 5.52 µM; with RPMI-8226 leukemia it was 15.9 µM; in the test on T-47D breast, 27.7 µM.

With `COc1ccc(-c2ccc(C3CC(c4ccc(O)cc4)=NN3)o2)c([N+](=O)[O-])c1` (centres undefined), the GI50 was 30.4 µM in the test with A498 renal; 25.7 µM in the test with A549 NSCLC; 27.2 µM in the test on COLO 205 colon; 40.1 µM with HT29 colon; 30 µM with MDA-MB-435; 39 µM in the test with NCI-H522 lung. The GI50 with PC-3 prostate is 25.9 µM; in the test with RPMI-8226 leukemia it was 11.6 µM; in the test on T-47D breast, 75 µM. Further, the TGI is above 100 µM in the test with A498 renal; 84 µM in the test with A549 NSCLC; 82.7 µM in the test on COLO 205 colon; 97.6 µM in the test on HT29 colon; above 100 µM in the test on MDA-MB-435; above 100 µM with NCI-H522 lung. Besides, the TGI with PC-3 prostate is above 100 µM; with RPMI-8226 leukemia, 71.9 µM; with T-47D breast it was above 100 µM.

Take `Oc1ccc2ccccc2c1C=NCCCN=Cc1c(O)ccc2ccccc12`: the GI50 was 32.1 µM with A549 NSCLC; 15.9 µM with COLO 205 colon; 8.93 µM in the test with HOP-92 NSCLC; 19.7 µM with HT29 colon; 10.8 µM in the test with MDA-MB-435; 4.91 µM in the test with NCI-H522 lung. The GI50 in the test on PC-3 prostate was 21.6 µM; in the test on RPMI-8226 leukemia, 4.11 µM; in the test with T-47D breast it was 6.66 µM. For the same molecule, the TGI in the test with A549 NSCLC was above 100 µM; in the test on COLO 205 colon, 31.1 µM; in the test on HOP-92 NSCLC, 59.9 µM; in the test on HT29 colon, 63.3 µM; in the test on MDA-MB-435 it was 71.2 µM; in the test on NCI-H522 lung, 41.5 µM. The TGI is above 100 µM in the test on PC-3 prostate, 31.1 µM in the test with RPMI-8226 leukemia and 43 µM in the test on T-47D breast.

Consider `CC(O)C1OC(O)C2OC(C)(C)OC12` (centres undefined), for which the TGI in the test on A498 renal, in the test on A549 NSCLC, in the test on COLO 205 colon, with HT29 colon, in the test with MDA-MB-435 and with NCI-H522 lung was above 100 µM throughout. For the same molecule, the TGI with PC-3 prostate, in the test on RPMI-8226 leukemia and in the test with T-47D breast was above 100 µM in each case.

As to `c1ccc(N=C2c3ccccc3CN2c2ccccc2)cc1`, the TGI with A549 NSCLC, in the test with COLO 205 colon, in the test with HOP-92 NSCLC, with HT29 colon, in the test on MDA-MB-435 and with NCI-H522 lung was above 100 µM throughout. Further, the TGI with PC-3 prostate, in the test on RPMI-8226 leukemia and with T-47D breast was above 100 µM each time.

On to `C=C1C(=O)O[C@@H]2C[C@@H]1CC[C@]1(C)O[C@H]1CC[C@@]1(C)O[C@@H]1CC[C@@]2(C)O`, for which the GI50 in the test on A549 NSCLC was above 100 µM; in the test on COLO 205 colon, 16.4 µM; in the test on HT29 colon, 24.7 µM; in the test on MDA-MB-435, 33 µM; in the test with NCI-H522 lung it was 19.1 µM; with PC-3 prostate it was 21.2 µM. Further, the GI50 in the test on RPMI-8226 leukemia is 12.4 µM; in the test on T-47D breast, 12.2 µM. Moreover, the TGI with A549 NSCLC is above 100 µM; with COLO 205 colon, 34.2 µM; in the test on HT29 colon, 87.6 µM; in the test on MDA-MB-435, above 100 µM; in the test with NCI-H522 lung it was 46.2 µM; in the test with PC-3 prostate, 94.9 µM. Also, the results for the TGI in the test with RPMI-8226 leukemia and with T-47D breast were 42.7 µM and 33.3 µM, respectively.

As for `OCCN(CCO)N=Nc1ccc(-c2nc3ccccc3[nH]2)cc1`, the GI50 with A549 NSCLC was 44.9 µM; in the test with COLO 205 colon, 22.9 µM; with HOP-92 NSCLC, 3.02 µM; with MDA-MB-435 it was 18.5 µM; in the test on NCI-H522 lung, 50.2 µM; in the test with PC-3 prostate, 39.4 µM. Moreover, the figures for the GI50 in the test on RPMI-8226 leukemia and with T-47D breast were 21.3 µM and 19.8 µM, respectively. Also, the TGI in the test on A549 NSCLC is above 100 µM; in the test with COLO 205 colon, 70.4 µM; with HOP-92 NSCLC, 23.8 µM; with MDA-MB-435, 38.8 µM; in the test on NCI-H522 lung, above 100 µM; in the test with PC-3 prostate it was above 100 µM. Also, the TGI worked out at 52.4 µM with RPMI-8226 leukemia and 53.1 µM with T-47D breast.

The values above are taken from PubChem BioAssay (NCI).
